Earlier results as cited in US8883408B2, “Tissue implants for implantation and methods of preparing the same” (CryoLife, Inc., priority 2010, dated 2014).

Tested on: sensitive bacteria
Conditions: literature review

In the case of `NCC[C@H](O)C(=O)N[C@@H]1C[C@H](N)[C@@H](O[C@H]2O[C@H](CN)[C@@H](O)[C@H](O)[C@H]2O)[C@H](O)[C@H]1O[C@H]1O[C@H](CO)[C@@H](O)[C@H](N)[C@H]1O` [amikacin], the “minimum inhibitory concentration against sensitive bacteria (MIC) range” value is given as 0.125 to 32 µg/mL.
